The values that follow come from patent EP1908478B1, “Pharmaceutical preparation and method of treatment of human malignancies with arginine deprivation” (Bio-Cancer Treatment International Limited, priority 2002, dated 2003).

The Km is the concentration of substrate that gives half-maximal velocity. Usually kcat stands for the maximal rate divided by the concentration of active sites.

One experiment deals with human liver Arginase (Homo sapiens, UniProt P05089). The following applies: published value in literature; substrate arginine; cited from earlier work.
The target of experiment [1] is T1, pegylated Arginase (recombinant human Arginase I, SEQ ID NO: 3, modified with mPEG-SPA, MW 5,000) (Homo sapiens, UniProt P05089).
T1 sequence (P05089 1-322): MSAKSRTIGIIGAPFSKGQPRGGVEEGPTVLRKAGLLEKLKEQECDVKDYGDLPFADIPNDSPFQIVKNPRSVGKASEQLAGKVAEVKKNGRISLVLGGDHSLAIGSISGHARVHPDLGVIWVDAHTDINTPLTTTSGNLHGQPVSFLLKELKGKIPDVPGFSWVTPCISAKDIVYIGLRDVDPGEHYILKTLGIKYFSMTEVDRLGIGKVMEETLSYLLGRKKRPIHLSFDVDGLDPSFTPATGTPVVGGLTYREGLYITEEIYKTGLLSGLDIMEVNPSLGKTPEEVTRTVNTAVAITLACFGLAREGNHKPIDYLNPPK
Briefly: Arginase activity, kinetic properties (method of Ikemoto et al. 1990). Type of experiment: biochemical. The following applies: substrate arginine. Here is the method: Moreover, about 1 mM of Mn^2+ ions and a temperature of 30-50 degree C are required to achieve maximum activity for the native Arginase.

Experiment [2] deals with T2, recombinant human Arginase I, native (non-pegylated), 6xHis-tagged, B. subtilis-expressed, SEQ ID NO: 3 (Homo sapiens, UniProt P05089).
T2 sequence (P05089 1-322): T1 sequence (P05089 1-322)
Described as above. In kind it is biochemical. The following applies: substrate arginine.

Take `N=C(N)NCCC[C@H](N)C(=O)O` [arginine]: the Km at human liver Arginase was 2600 µM; in experiment [1] it was 2900 ± 300 µM; in experiment [2] it was 1900 ± 700 µM. The Vmax is 360 µmol urea min^-1 mM^-1 in experiment [1] and 518 µmol urea min^-1. mM^-1 in experiment [2]. Moreover, in experiment [2], the kcat was 2.0 ± 0.5 s⁻¹.
